Data on one molecule can be found in patent US20250041330A1, “METHOD OF TREATING OBESITY BY SELECTIVE TARGETING OF VISCERAL ADIPOSITY USING POLYCATION NANOMEDICINE” (THE TRUSTEES OF COLUMBIA UNIVERSITY IN THE CITY OF NEW YORK, priority 2022, published 2025).

For this assay, the system named is 3T3-L1 cells. Nature of the assay: 3T3-L1 adipocyte differentiation (lipid staining, qPCR). The class given is cell-based, mouse. The conditions noted are these: NMN 20 mM with P-G3 10 μg/ml, day 0-3 of differentiation. How it is done:
3T3-L1 (ATCC CL-173) and C3H10T1/2 (CCL-226) cells were purchased from ATCC and cultured in high glucose DMEM supplemented with 10% calf serum (CS, Gemini Bio-Products 100-506) or FBS (heat-inactivated, Corning 35-011-CV), and 1× Pen Strep (Thermo Fisher). Cells were differentiated in the standard adipogenic cocktail after reaching confluence for 2 days. The cocktail contains DMEM, 10% FBS, 1 μM dexamethasone (DEX), 10 μg/ml insulin and 0.5 mM 3-isobutyl-1-methylxanthine (IBMX). 5 μM Rosiglitazone was used in the first two days to facilitate C3H10T1/2 cells' differentiation. After induction for two days, cells were maintained in a complete medium containing 2.5 μg/ml insulin until fully differentiated. P-G3 polymers or NPs (10 μg/ml) were added at indicated times, and cells were harvested during differentiation for analyses. Lipid droplets were visualized using Oil Red O staining or BODIPY staining. 3T3-L1 cells were treated with rapamycin (100 nM) from Day 4 to Day 6. […]
Total RNA from tissues or cells was extracted by using the TriZol reagent (Thermo Fisher) in combination with an RNA isolation kit from Macherey-Nagel. […] Bio-Rad CFX96 Real-Time PCR system was used to perform quantitative real-time PCR (qPCR) with goTaq qPCR Master Mix (Promega). The relative gene expression was calculated by using the ΔΔCt method with Cyclophilin A or Rpl23 as the reference gene. […]
In general terms: Quantitative PCR measures a nucleic acid by following its amplification.

`NC(=O)c1ccc[n+]([C@@H]2O[C@H](COP(=O)([O-])O)[C@@H](O)[C@H]2O)c1` [NMN, nicotinamide mononucleotide]: the “effect on P-G3's pro-adipogenic effect” value is given as “counteracted the pro-adipogenic effect of P-G3”.
